The record followed here is US9884063B2, “Amido-substituted azole compounds” (Bayer Pharma Aktiengesellschaft, priority 2014, dated 2018).

As usually defined, the IC50 is the concentration that gives 50% inhibition. A lower IC50 goes with higher potency.

Test [1] deals with T1, TNKS1 (Homo sapiens, UniProt O95271).
T1 sequence (O95271 1-1327): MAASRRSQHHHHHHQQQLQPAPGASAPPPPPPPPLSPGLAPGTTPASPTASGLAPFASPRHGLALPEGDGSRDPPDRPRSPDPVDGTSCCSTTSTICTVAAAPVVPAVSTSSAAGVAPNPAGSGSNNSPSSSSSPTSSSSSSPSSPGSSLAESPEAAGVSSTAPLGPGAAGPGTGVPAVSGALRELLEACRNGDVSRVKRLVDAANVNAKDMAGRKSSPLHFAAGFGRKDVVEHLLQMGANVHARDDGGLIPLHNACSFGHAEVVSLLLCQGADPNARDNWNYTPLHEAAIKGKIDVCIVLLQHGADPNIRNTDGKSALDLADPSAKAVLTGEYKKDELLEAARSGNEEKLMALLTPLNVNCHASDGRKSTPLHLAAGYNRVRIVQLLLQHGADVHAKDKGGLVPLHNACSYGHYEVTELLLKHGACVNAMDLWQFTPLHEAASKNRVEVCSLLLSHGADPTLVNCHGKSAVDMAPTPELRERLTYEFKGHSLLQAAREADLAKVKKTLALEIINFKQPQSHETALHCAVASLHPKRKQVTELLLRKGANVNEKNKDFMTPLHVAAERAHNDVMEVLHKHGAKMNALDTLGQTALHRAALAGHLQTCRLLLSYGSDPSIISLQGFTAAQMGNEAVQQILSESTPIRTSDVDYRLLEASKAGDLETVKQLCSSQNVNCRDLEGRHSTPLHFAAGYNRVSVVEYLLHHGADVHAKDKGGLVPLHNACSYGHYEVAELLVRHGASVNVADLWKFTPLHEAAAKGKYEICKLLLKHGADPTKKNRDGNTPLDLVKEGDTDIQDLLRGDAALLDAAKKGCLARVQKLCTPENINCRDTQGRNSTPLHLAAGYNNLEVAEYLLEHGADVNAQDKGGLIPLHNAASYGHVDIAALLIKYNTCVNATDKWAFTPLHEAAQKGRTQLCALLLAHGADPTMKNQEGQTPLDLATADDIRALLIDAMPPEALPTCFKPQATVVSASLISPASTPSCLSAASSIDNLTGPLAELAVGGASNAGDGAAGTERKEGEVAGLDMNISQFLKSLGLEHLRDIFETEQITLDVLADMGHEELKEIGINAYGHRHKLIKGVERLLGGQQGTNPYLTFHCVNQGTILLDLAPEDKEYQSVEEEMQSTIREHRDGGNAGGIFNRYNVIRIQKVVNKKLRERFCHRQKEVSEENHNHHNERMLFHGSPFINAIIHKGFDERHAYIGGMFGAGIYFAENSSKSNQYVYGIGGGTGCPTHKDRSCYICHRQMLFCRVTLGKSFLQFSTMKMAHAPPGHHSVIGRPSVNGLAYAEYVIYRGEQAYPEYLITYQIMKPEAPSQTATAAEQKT
The test is described as follows: Modified TNKS1 Assay 2 (auto-parsylation, [3H]-NAD+ SPA). As to conditions: 6 nM TNKS1, 96 well. It is filed as biochemical.

Test [2] has as its system wildtype Wnt signaling cascade. The test is described as follows: HEK293 TOP Assay (Super TopFlash luciferase reporter, Wnt-3a stimulated). The test is classed as cell-based. As to conditions: Homo sapiens, HEK293, 16 h. The gist of the method:
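Compounds (50 μM down to 15 nM, 3.16-fold steps, in CAFTY buffer pH 7.4, 2 mM Ca2+, 0.01% BSA) tested in parallel on TOP and FOP HEK293 reporter lines to define selective wildtype Wnt inhibition. Pathway driven by recombinant human Wnt-3a applied at 2500–5 ng/ml in two-fold dilutions.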

Where [3] appears, read: HEK293 TOP reporter cell line, Wnt-3a at EC50, 16 hours incubation, compound dilution series 50 μM to 15 nM.
The mark [4] stands for this setting: HEK293 TOP reporter cells, Wnt3a at EC50, 16 hours, luciferase.

As to `O=C(Nc1ccc(NC(=O)c2[nH]cnc2C(=O)NCCN2CCCCC2)cc1)c1ccc(F)cc1Cl` [Example 32, N^4-{4-[(2-chloro-4-fluorobenzoyl)amino]phenyl}-N^5-[2-(piperidin-1-yl)ethyl]-1H-imidazole-4,5-dicarboxamide], the figures for the IC50 in test [1], in test [2] (setting [3]) and in test [2] (setting [4]) were 9 nM, 20 nM and 20 nM, respectively.
Regarding `O=C(Nc1ccc(NC(=O)c2[nH]cnc2C(=O)NCCc2ccccc2)cc1)c1ccc(F)cc1Cl` [Example 384, N^5-{4-[(2-chloro-4-fluorobenzoyl)amino]phenyl}-N^4-(2-phenylethyl)-1H-imidazole-4,5-dicarboxamide], the IC50 is 1500 nM in test [1] and 1900 nM in test [2] (setting [3]).
On the same counts, the results for `Cc1nc(C(=O)Nc2ccc(NC(=O)c3ccc(F)cc3Cl)cc2)c(C(=O)NCCN2CCCCC2)[nH]1` [Example 67, N^4-{4-[(2-chloro-4-fluorobenzoyl)amino]phenyl}-2-methyl-N^5-[2-(piperidin-1-yl)ethyl]-1H-imidazole-4,5-dicarboxamide] are 4 nM and 70 nM.
On the same counts, the results for `CNC(=O)c1nc[nH]c1C(=O)Nc1ccc(NC(=O)c2ccccc2Cl)c(F)c1` [Example 80, N^5-{4-[(2-chlorobenzoyl)amino]-3-fluorophenyl}-N^4-methyl-1H-imidazole-4,5-dicarboxamide] are 690 nM and 820 nM.
For `O=C(Nc1ccc(NC(=O)c2nc[nH]c2C(=O)NCC2CCOCC2)cc1)c1ccc(F)cc1Cl` [Example 397, N^5-{4-[(2-chloro-4-fluorobenzoyl)amino]phenyl}-N^4-(tetrahydro-2H-pyran-4-ylmethyl)-1H-imidazole-4,5-dicarboxamide] the same measures were 240 nM and 460 nM.
Take `Cc1nc(C(=O)Nc2ccc(NC(=O)c3ccc(F)cc3Cl)cc2)c(C(=O)NCCN(C)C)[nH]1` [Example 66, N^4-{4-[(2-chloro-4-fluorobenzoyl)amino]phenyl}-N^5-[2-(dimethylamino)ethyl]-2-methyl-1H-imidazole-4,5-dicarboxamide]: the figures for the IC50 in test [1] and in test [2] (setting [3]) were 20 nM and 310 nM, respectively.
Turning to `CNC(=O)c1nc[nH]c1C(=O)Nc1ccc(NC(=O)c2cc(Br)ccc2Cl)cc1` [Example 313, N^5-{4-[(5-bromo-2-chlorobenzoyl)amino]phenyl}-N^4-methyl-1H-imidazole-4,5-dicarboxamide], the IC50 in test [1] stood at 420 nM; in test [2] (setting [3]) it was 410 nM.
On the same counts, the results for `CNC(=O)c1nc[nH]c1C(=O)Nc1ccc(NC(=O)c2cccc(Cl)n2)cc1` [Example 353, N^5-(4-{[(6-chloropyridin-2-yl)carbonyl]amino}phenyl)-N^4-methyl-1H-imidazole-4,5-dicarboxamide] are greater than 10000 nM and 50000 nM.
On the same counts, the results for `CNC(=O)c1nc[nH]c1C(=O)Nc1ccc(NC(=O)c2ccc(F)cc2I)cc1` [Example 61, N^5-{4-[(4-fluoro-2-iodobenzoyl)amino]phenyl}-N^4-methyl-1H-imidazole-4,5-dicarboxamide] are 30 nM and 100 nM.
As to `O=C(Nc1ccc(NC(=O)c2[nH]cnc2C(=O)NCCc2ccncc2)cc1)c1ccc(F)cc1Cl` [Example 394, N^5-{4-[(2-chloro-4-fluorobenzoyl)amino]phenyl}-N^4-[2-(pyridin-4-yl)ethyl]-1H-imidazole-4,5-dicarboxamide], the IC50 in test [1] was found to be 50 nM; in test [2] (setting [3]), 700 nM.
On the same counts, the results for `CNC(=O)c1nc[nH]c1C(=O)Nc1ccc(NC(=O)c2ccc(Cl)cc2F)cc1` [Example 333, N^5-{4-[(4-chloro-2-fluorobenzoyl)amino]phenyl}-N^4-methyl-1H-imidazole-4,5-dicarboxamide] are 960 nM and 950 nM.
Consider `CNC(=O)c1nc[nH]c1C(=O)Nc1ccc(NC(=O)c2ccccc2)cc1` [Example 21, N^5-[4-(benzoylamino)phenyl]-N^4-methyl-1H-imidazole-4,5-dicarboxamide], for which the results for the IC50 in test [1], in test [2] (setting [3]) and in test [2] (setting [4]) were greater than 10000 nM, 12000 nM and 12000 nM, respectively.
`Cc1cc(NC(=O)c2[nH]cnc2C(=O)NCCN2CCCCC2)ccc1NC(=O)c1ccc(F)cc1Cl` [Example 85, N^5-{4-[(2-chloro-4-fluorobenzoyl)amino]-3-methylphenyl}-N^4-[2-(piperidin-1-yl)ethyl]-1H-imidazole-4,5-dicarboxamide]: the IC50 was 9 nM in test [1] and 160 nM in test [2] (setting [3]).
With `CNC(=O)c1nc[nH]c1C(=O)Nc1ccc(NC(=O)c2ccc(Br)cc2Cl)cc1` [Example 334, N^5-{4-[(4-bromo-2-chlorobenzoyl)amino]phenyl}-N^4-methyl-1H-imidazole-4,5-dicarboxamide], the IC50 in test [1] amounted to 60 nM; in test [2] (setting [3]) it was 860 nM.
`O=C(Nc1ccc(NC(=O)c2[nH]cnc2C(=O)NCCC2CCCC2)cc1)c1ccc(F)cc1Cl` [Example 42, N^5-{4-[(2-chloro-4-fluorobenzoyl)amino]phenyl}-N^4-(2-cyclopentylethyl)-1H-imidazole-4,5-dicarboxamide]: the IC50 in test [1] was greater than 10000 nM; in test [2] (setting [3]), 2300 nM.
As for `CS(=O)(=O)c1ccc(C(=O)Nc2ccc(NC(=O)c3[nH]cnc3C(=O)NCCN3CCCCC3)cc2)c(Cl)c1` [Example 53, N^5-(4-{[2-chloro-4-(methylsulfonyl)benzoyl]amino}phenyl)-N^4-[2-(piperidin-1-yl)ethyl]-1H-imidazole-4,5-dicarboxamide], the IC50 came to 20 nM in test [1] and 40 nM in test [2] (setting [3]).
For `O=C(Nc1ccc(NC(=O)c2ocnc2C(=O)NCCN2CCCCC2)cc1)c1ccc(F)cc1Cl` [Example 303, N^5-{4-[(2-chloro-4-fluorobenzoyl)amino]phenyl}-N^4-[2-(piperidin-1-yl)ethyl]-1,3-oxazole-4,5-dicarboxamide] the same measures were 8 nM and 140 nM.
For `CCNC(=O)c1nc[nH]c1C(=O)Nc1ccc(NC(=O)c2ncccc2Cl)cc1` [Example 261, N^5-(4-{[(3-chloropyridin-2-yl)carbonyl]amino}phenyl)-N^4-ethyl-1H-imidazole-4,5-dicarboxamide], the IC50 came to 230 nM in test [1] and 22200 nM in test [2] (setting [3]).
On the same counts, the results for `CNC(=O)c1nc[nH]c1C(=O)Nc1ccc(NC(=O)c2cccc(F)c2OC)cc1` [Example 367, N^5-{4-[(3-fluoro-2-methoxybenzoyl)amino]phenyl}-N^4-methyl-1H-imidazole-4,5-dicarboxamide] are greater than 10000 nM and 12400 nM.
Regarding `CN(C)CCNC(=O)c1nc[nH]c1C(=O)Nc1ccc(NC(=O)c2ccc(F)cc2Cl)cc1` [Example 22, N^4-{4-[(2-chloro-4-fluorobenzoyl)amino]phenyl}-N^5-[2-(dimethylamino)ethyl]-1H-imidazole-4,5-dicarboxamide], the IC50 in test [1] worked out at 10 nM; in test [2] (setting [3]), 140 nM; in test [2] (setting [4]) it was 130 nM.
`CCc1nc(C(=O)Nc2ccc(NC(=O)c3ccc(F)cc3Cl)cc2)c(C(=O)NC)[nH]1` [Example 68, N^4-{4-[(2-chloro-4-fluorobenzoyl)amino]phenyl}-2-ethyl-N^5-methyl-1H-imidazole-4,5-dicarboxamide]: the figures for the IC50 in test [1] and in test [2] (setting [3]) were greater than 10000 nM and 2150 nM, respectively.
